Consider four compounds from article PMC8951750, “In Vitro Anticancer and Cancer-Preventive Activity of New Triterpene Glycosides from the Far Eastern Starfish Solaster pacificus” (Marine Drugs, 2022).

Assay [1] concerns non-cancerous mouse epidermal cells JB6 Cl41. As to the kind of experiment: Cell viability, MTS assay, JB6 Cl41. In kind it is cell-based. As to conditions: MTS assay, 24 h, normal cells, read-out: IC50, cell viability JB6 Cl41. The method, then:
(§1) MTS assay was used to measure the cell viability of tested normal and cancer cells. Cells were seeded into 96-well plates (“Jet Biofil”, Guangzhou, China) at density of 1.0 × 10^4/200 µL for 24 h at 37 °C in a 5% CO2 incubator. Then, cell monolayer was treated either with DMSO (control) or various concentrations of the triterpene glycosides 1–9 from S. pacificus (0.1, 0.5, 2.5, 12.5, 62.5 µM) in fresh appropriate culture medium for 24 h. Subsequently, the cells were incubated with 15 µL of 3-(4,5-dimethylthiazol-2-yl)-5-(3-carboxymethoxyphenyl)-2-(4-sulfophenyl)-2H-tetrazolium (MTS reagent) (“Promega”, Madison, WI, USA) for 3 h, and the absorbance of each well was measured at 490/630 nm using Power Wave XS microplate reader (“BioTek”, Wynusky, VT, USA). The concentration at which the compounds exert half of their maximal inhibitory effect on cell viability (IC50) was calculated by the AAT-Bioquest® online calculator [39]. The selectivity index (SI) was calculated as described previously using the following formula SI = IC50 of the compounds in normal cell (JB6 Cl41)/IC50 of the same compounds in human melanoma cell lines (SK-MEL-2, SK-MEL-28, or RPMI-7951).
(In general: Tetrazolium dyes change colour on reduction, which living cells bring about.)

Assay [2] concerns human melanoma cells SK-MEL-2. The assay can be described thus: Cell viability, MTS assay, SK-MEL-2. In kind it is cell-based. Conditions: for IC50: MTS assay, 24 h, read-out: IC50, cell viability SK-MEL-2; for SI (selectivity index) SK-MEL-2: IC50 JB6 Cl41 / IC50 SK-MEL-2. The method, then:
as §1

Assay [3] concerns human melanoma cells SK-MEL-28. The assay can be described thus: Cell viability, MTS assay, SK-MEL-28. In kind it is cell-based. Conditions: for IC50: Homo sapiens, SK-MEL-28, 24 h, MTS assay, 24 h, read-out: IC50, cell viability SK-MEL-28; for SI (selectivity index) SK-MEL-28: IC50 JB6 Cl41 / IC50 SK-MEL-28. The method, then: as §1
Assay [4] relates to human melanoma cells RPMI-7951. The assay can be described thus: Cell viability, MTS assay, RPMI-7951. In kind it is cell-based. As to conditions: for IC50: Homo sapiens, RPMI-7951, 24 h, MTS assay, 24 h, read-out: IC50, cell viability RPMI-7951; for SI (selectivity index) RPMI-7951: IC50 JB6 Cl41 / IC50 RPMI-7951. As to the method:
as §1

Assay [5] deals with Human erythrocytes (O(I)+). The assay can be described thus: Hemolysis assay. In kind it is cell-based. Conditions: 1 h, 37 °C, PBS pH 7.4. As to the method: Human erythrocytes (O(I)+) were obtained from Vladivostok blood transfusion station. Erythrocytes were centrifuged with PBS (pH 7.4) for 5 min at 4 °C by 450× g on a LABOFUGE 400R (Heraeus, Hanau, Germany) centrifuge three times. Then, the residue of erythrocytes was resuspended in ice-cold PBS (pH 7.4) to a final optical density of 2.0 at 700 nm and kept on ice. For the hemolytic assay, 180 µL of erythrocyte suspension was mixed with 20 µL of Cucumarioside A2-2 (positive control) and investigated compounds at concentrations range of 0.1, 0.5, 1, 5, 10 µM in V-bottom 96-well plates. After 1 h of incubation at 37 °C, plates were centrifuged at 900× g for 10 min on an LMC-3000 (Biosan, Riga, Latvia) laboratory centrifuge. Then, we carefully selected 100 µL of supernatant and transferred it to new flat plates, respectively. Lysis of erythrocytes was determined by measuring the concentration of hemoglobin in the supernatant with a microplate photometer Multiskan FC (Thermo Fisher Scientific, Waltham, MA, USA) at 570 nm. The effective dose causing 50% of erythrocytes hemolysis (ED50) was calculated using the computer program SigmaPlot 10.0. All experiments were made in triplicate, p < 0.01.

Assay [6] has as its system JB6 Cl41 cells. As to the kind of experiment: Soft agar assay, EGF-induced neoplastic cell transformation. In kind it is cell-based, mouse. As to conditions: Mus musculus, JB6 Cl41, 336 h, compound 0.1 µM, EGF 1 ng/mL, soft agar, 2 weeks, vs positive control; read-out: inhibition of EGF-induced neoplastic transformation of JB6 Cl41 cells. As to the method:
(§2) JB6 Cl41 cells (2.4 × 10^4) were exposed to epidermal growth factor (EGF) (1 ng/mL) or phorbol 12-myristate 13-acetate (TPA) (10 ng/mL) and treated either with DMSO (control) or the triterpene glycosides 1–9 from S. pacificus (0.1, 0.5, and 1 µM) in 1 mL of 0.3% basal medium Eagle (BME) agar containing 10% FBS, 2 mM L-glutamine, and 25 µg/mL gentamicin (agar mix). The cultures were maintained in a humidified atmosphere with 5% CO2 at 37 °C for 14 days, and the cell’s colonies were scored using a microscope, Motic AE 20 (XiangAn, Xiamen, China), and the ImageJ software bundled with 64-bit Java 1.8.0_112 (NIH, Bethesda, MD, USA). To determine the effect of investigated compounds on neoplastic cell transformation induced by ionizing radiation (X-ray or UVB), JB6 Cl41 cells (3 × 10^5/dish) were seeded in 60 mm dishes and cultured for 24 h at 37 °C in 5% CO2 incubator. Then, the cells were exposed to X-rays (X-ray system XPERT 80 (KUB Technologies, Inc, Milford, CT, USA)) at dose of 0.5 Gy or UVB (wavelengths below 312 nm) (Bio-Link UV irradiation system, Vilber, France) at dose of 0.3 J/cm^2 three times a week for 3 weeks. Irradiated JB6 Cl41 cells (2.4 × 10^4) were treated either with DMSO (control) or the triterpene glycosides 1–9 from S. pacificus (0.1, 0.5, and 1 µM) in 1 mL of agar mix. The cultures were maintained in a humidified atmosphere with 5% CO2 at 37 °C for 14 days, and the cell’s colonies were scored using a microscope, Motic AE 20 (XiangAn, Xiamen 361101, China), and the ImageJ software bundled with 64-bit Java 1.8.0_112 (NIH, Bethesda, MD, USA).

In assay [7] the test system is JB6 Cl41 cells. As to the kind of experiment: Soft agar assay, TPA-induced neoplastic cell transformation. In kind it is cell-based, mouse. As to conditions: Mus musculus, JB6 Cl41, 336 h, compound 0.1 µM, TPA 10 ng/mL, soft agar, 2 weeks, vs positive control; read-out: inhibition of TPA-induced neoplastic transformation of JB6 Cl41 cells. The method, then:
as §2

Assay [8] concerns JB6 Cl41 cells. The assay can be described thus: Soft agar assay, X-ray-induced neoplastic cell transformation. In kind it is cell-based, mouse. As to conditions: Mus musculus, JB6 Cl41, 504 h; compound 0.1 µM, X-rays 0.5 Gy three times a week for 3 weeks, soft agar; read-out: inhibition of X-ray-induced cell transformation (JB6 Cl41 colonies formation). The method, then:
as §2

For assay [9], the system named is JB6 Cl41 cells. As to the kind of experiment: Soft agar assay, UVB-induced neoplastic cell transformation. In kind it is cell-based, mouse. As to conditions: compound 0.1 µM, UVB 0.3 J/cm^2 three times a week for 3 weeks, soft agar; for inhibition at 0.1 µM: Mus musculus, JB6 Cl41, light or radiation study, 504 h, read-out: inhibition of UVB-induced neoplastic cell transformation (decrease of colonies number). As to the method:
as §2

For assay [10], the system named is SK-MEL-2 cells. The assay can be described thus: Soft agar assay, colony formation of cancer cells. In kind it is cell-based, human. Conditions: compound 0.1 µM, 14 days. The method, then: SK-MEL-2 cells (2.4 × 10^4) were treated either with DMSO (control) or the triterpene glycosides 1–9 from S. pacificus (0.1 µM) in 1 mL of agar mix. After 14 days, colonies of cancer cells were scored as described above.

Values joined by “and” are separate entries in the source; they are usually repeats but may differ in a detail not shown here. Equal entries are not always repeated. Where two headings read alike, the source gives them in different places. Bounds are passed on as bounds.

Regarding `COC1C(O)C(CO)OC(OC2C(O)C(CO)OC(OC3C(C)OC(OC4C(OC5CCC6(C)C7CCC89C(=O)OC(C)(C=CC=C(C)C)C8C(OC(C)=O)CC9(C)C7=CCC6C5(C)C)OCC(O)C4O)C(OC4OCC(O)C(O)C4O)C3O)C2O)C1O` [Compound 1, 3β-O-{3-O-methyl-β-D-glucopyranosyl-(1→3)-β-D-glucopyranosyl-(1→4)-[β-D-xylopyranosyl-(1→2)]-β-D-quinovopyranosyl-(1→2)-β-D-xylopyranosyl}-16β-acetoxyholosta-7,22E,24-triene], the IC50 was 6.4 ± 0.05 µM in [1] (Mus musculus, JB6 Cl41, 24 h); less than 1 µM in assay [2] (Homo sapiens, SK-MEL-2, 24 h); 0.7 ± 0.07 µM in assay [2]; 8.4 ± 0.07 µM in [3]; 26.7 ± 0.1 µM in [4]. The “SI (selectivity index) SK-MEL-2” value in assay [2] worked out at 9.1. Also, the “SI (selectivity index) SK-MEL-28” value in assay [3] came to 0.8. Also, in assay [4], the “SI (selectivity index) RPMI-7951” value is listed as 0.24. Besides, the “ED50, effective dose causing 50% of erythrocytes hemolysis” value in assay [5] was 2.03 µM and 2.03 ± 0.19 µM. Besides, the inhibition at 0.1 µM in assay [6] was 94%; in assay [7], 98%; in assay [8] it was 94%; in [9], 96%. In addition, in assay [10], the “decrease of colonies number of SK-MEL-2 cells (colony formation)” value is recorded as 64%.
Take `CC(=O)OC1CC2(C)C3=CCC4C(C)(C)C(OC5OCC(O)C(O)C5OC5OC(C)C(OC6OC(CO)C(O)C(O)C6O)C(O)C5OC5OCC(O)C(O)C5O)CCC4(C)C3CCC23C(=O)OC(C)(C=CC=C(C)C)C13` [Compound 2, 3β-O-{β-D-glucopyranosyl-(1→4)-[β-D-xylopyranosyl-(1→2)]-β-D-quinovopyranosyl-(1→2)-β-D-xylopyranosyl}-16β-acetoxyholosta-7,22E,24-triene]: the IC50 is 31.5 ± 4.1 µM in assay [1]; 37.6 ± 0.2 µM in assay [2] (Homo sapiens, SK-MEL-2, 24 h); 29 ± 0.02 µM in assay [3]; 36.4 ± 0.2 µM in assay [4]. For the same compound, the “SI (selectivity index) SK-MEL-2” value in assay [2] is on record as 0.8. Further, in assay [3], the “SI (selectivity index) SK-MEL-28” value was determined as 1.0. Also, the “SI (selectivity index) RPMI-7951” value in assay [4] is given as 0.87. For the same compound, the “ED50, effective dose causing 50% of erythrocytes hemolysis” value in [5] stood at 4.08 ± 0.36 µM. In addition, the inhibition at 0.1 µM is 25% in assay [6], 18% in assay [7] and less than 15% in assay [8]. Moreover, in [9], the “inhibition of UVB-induced neoplastic cell transformation (decrease of colonies number)” value is “not effective”. In addition, in [10], the “decrease of colonies number of SK-MEL-2 cells (colony formation)” value stood at 3%.
Take `C=C(C)C1C2CC3(C)C4=CCC5C(C)(C)C(OC6OCC(O)C(O)C6OC6OC(C)C(OC7OC(COS(=O)(=O)O)C(O)C(OC8OCC(O)C(OC)C8O)C7O)C(O)C6O)CCC5(C)C4CCC13C(=O)O2` [Compound 9, 3β-O-{3-O-methyl-β-D-xylopyranosyl-(1→3)-6-O-6-sulfoxy-β-D-glucopyranosyl-(1→4)-β-D-quinovopyranosyl-(1→2)-β-D-xylopyranosyl}-23,24,25,26,27-pentanor-5α-lanosta-7,20(22)-diene-18(16)-lactone]: the half-inhibitory concentration (IC50) in [1] (Mus musculus, JB6 Cl41, 24 h) was 7.4 ± 0.8 µM; in assay [2] (Homo sapiens, SK-MEL-2, 24 h), less than 1 µM; in assay [2] it was 0.75 ± 0.03 µM; in assay [3], 23.3 ± 0.6 µM; in [4], 32.4 ± 0.08 µM. The “SI (selectivity index) SK-MEL-2” value in [2] is given as 9.9. The “SI (selectivity index) SK-MEL-28” value in assay [3] is 0.32. Also, the “SI (selectivity index) RPMI-7951” value in assay [4] was 0.23. Besides, the “ED50, effective dose causing 50% of erythrocytes hemolysis” value in assay [5] worked out at 2.85 ± 0.14 µM. Moreover, the inhibition at 0.1 µM is 34% in assay [6], 42% in assay [7], 28% in assay [8] and 11% in assay [9].
On to `C=C(C)CCCC1(C)OC(=O)C23CCC4C(=CCC5C(C)(C)C(OC6OCC(OS(=O)(=O)[O-])C(O)C6OC6OC(C)C(OC7OC(CO)C(O)C(OC8OC(CO)C(O)C(OC)C8O)C7O)C(O)C6OC6OCC(O)C(O)C6O)CCC45C)C2(C)CC(=O)C13.[Na+]` (centres unmarked) [Cucumarioside A2-2, reference compound], for which the “ED50, effective dose causing 50% of erythrocytes hemolysis” value in assay [5] is recorded as 0.95 ± 0.04 µM.

Usually IC50 stands for the concentration at which inhibition is half-maximal. As a reminder, the inhibition is the percentage by which the read-out fell short of the control.
